Measured values from patent US20060142178A1, “Method of treating cancer” (priority 2002, published 2006).

Tests used:
Format in all cases: biochemical
ΔPH-Akt2 = biological target: T1, ΔPH-Akt2 (Homo sapiens, UniProt P31751); assay: Akt kinase assay, GSK3 peptide substrate, Akt2 delta PH; conditions: pleckstrin homology domain deleted Akt2, GSK3 peptide substrate
T1 construct: PCR was performed using the full length Akt2 gene as template; biotin tag (from pS2neo vector); made in house; host or cells: Drosophila S2 cells

PKC = PKC assay (counter screen); conditions: Myelin basic protein substrate; read-out: Counter screens IC50 (μM) PKC
Procedure: Each PKC assay consists of the following components:
The assays were assembled in 96 deep-well assay plates. Inhibitor or vehicle (10 μl) was added to 5.0 μl of ^33P-ATP. Reactions were initiated with the addition of the PKC/Myelin Basic Protein working solution and mixing. Reactions were incubated at 30° C. for 20 min. The reactions were stopped by adding 50 μl of 100 mM EDTA and 100 mM sodium pyrophosphate and mixing. Phosphorylated Mylein Basic Protein was collected on PVDF membranes in 96 well filter plates and quantitated by scintillation counting.

PKA catalytic subunit = biological target: T2, PKA catalytic subunit (Bos taurus, UniProt P00517); assay: PKA assay (counter screen); conditions: Kemptide substrate; read-out: Counter screens IC50 (μM) PKA
T2 construct: purchased UBI (Upstate Biotechnology, Inc.) 14-114
Procedure: The reactions were stopped by adding 50 μl of 100 mM EDTA and 100 mM sodium pyrophosphate and mixing.
After the final wash, the filters were allowed to air dry.

Human Akt2 = biological target: T3, Human Akt2 (Homo sapiens, UniProt P31751); assay: Akt kinase assay, GSK3 peptide substrate, Akt2; conditions: activated full length Akt2, GSK3 peptide substrate
T3 construct: a middle T tag was added to the 5′ end of the full length Akt2 using the PCR primer; biotin tag (from pS2neo vector); made in house; host or cells: Drosophila S2 cells
Procedure: (§1) Akt and Akt pleckstrin homology domain deletions were activated (Alessi et al. Current Biology 7:261-269) in a reaction containing 10 nM PDK1 (Upstate Biotechnology, Inc.), lipid vesicles (10 μM phosphatidylinositol-3,4,5-trisphosphate—Metreya, Inc, 100 μM phosphatidylcholine and 100 μM phosphatidylserine—Avanti Polar lipids, Inc.) and activation buffer (50 mM Tris pH7.4, 1.0 mM DTT, 0.1 mM EGTA, 1.0 μM Microcystin-LR, 0.1 mM ATP, 10 mM MgCl2, 333 μg/ml BSA and 0.1 mM EDTA). The reaction was incubated at 22° C. for 4 hours. Aliquots were flash frozen in liquid nitrogen.
(§2) Activated AKT isoforms and pleckstrin homology domain deletion constructs were assayed utilizing a GSK-derived biotinylated peptide substrate. The extent of peptide phosphorylation was determined by Homogeneous Time Resolved Fluorescence […] using a lanthanide chelate (Lance)-coupled monoclonal antibody specific for the phosphopeptide in combination with a streptavidin-linked allophycocyanin (SA-APC) fluorophore which will bind to the biotin moiety on the peptide. […]
(§3) The reaction is assembled by adding 16 μL of the ATP/MgCl2 working solution to the appropriate wells of a 96-well microtiter plate. […] The stopped reactions were incubated at room temperature for at least 30 min and then read on the Discovery instrument. […]

Human Akt3 = biological target: T4, Human Akt3 (Homo sapiens, UniProt Q9Y243); assay: Akt kinase assay, GSK3 peptide substrate, Akt3; conditions: activated full length Akt3, GSK3 peptide substrate
T4 construct: a middle T tag was added to the 5′ end of the full length Akt3 clone; biotin tag (from pS2neo vector); made in house; host or cells: Drosophila S2 cells
Procedure: as §1, §2, §3

ΔPH-Akt1 = biological target: T5, ΔPH-Akt1 (Homo sapiens, UniProt P31749); assay: Akt kinase assay, GSK3 peptide substrate, Akt1 delta PH; conditions: pleckstrin homology domain deleted Akt1, GSK3 peptide substrate
T5 construct: PCR deletion mutagenesis was done using the full length Akt1 gene in the pS2neo vector as template; biotin tag (from pS2neo vector); made in house; host or cells: Drosophila S2 cells

Human Akt1 = biological target: T6, Human Akt1 (Homo sapiens, UniProt P31749); assay: Akt kinase assay, GSK3 peptide substrate, Akt1; conditions: activated full length Akt1, GSK3 peptide substrate
T6 construct: a middle T tag was added to the 5′ end of the full length Akt1 gene; biotin tag (from pS2neo vector); made in house; host or cells: Drosophila S2 cells
Procedure: as §1, §2, §3

T5 sequence (P31749 with tags, fused parts or gaps): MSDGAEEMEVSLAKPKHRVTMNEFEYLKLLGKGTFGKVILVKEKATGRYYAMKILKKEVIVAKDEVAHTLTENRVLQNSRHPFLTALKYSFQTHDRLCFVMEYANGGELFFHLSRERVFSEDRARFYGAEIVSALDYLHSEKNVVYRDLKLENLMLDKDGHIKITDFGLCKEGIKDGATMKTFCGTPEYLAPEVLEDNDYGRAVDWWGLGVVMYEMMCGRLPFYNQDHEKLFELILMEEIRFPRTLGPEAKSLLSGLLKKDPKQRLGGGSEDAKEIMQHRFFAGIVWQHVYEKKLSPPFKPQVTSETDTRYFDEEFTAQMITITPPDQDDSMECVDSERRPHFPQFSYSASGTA
T4 sequence (Q9Y243 whole entry): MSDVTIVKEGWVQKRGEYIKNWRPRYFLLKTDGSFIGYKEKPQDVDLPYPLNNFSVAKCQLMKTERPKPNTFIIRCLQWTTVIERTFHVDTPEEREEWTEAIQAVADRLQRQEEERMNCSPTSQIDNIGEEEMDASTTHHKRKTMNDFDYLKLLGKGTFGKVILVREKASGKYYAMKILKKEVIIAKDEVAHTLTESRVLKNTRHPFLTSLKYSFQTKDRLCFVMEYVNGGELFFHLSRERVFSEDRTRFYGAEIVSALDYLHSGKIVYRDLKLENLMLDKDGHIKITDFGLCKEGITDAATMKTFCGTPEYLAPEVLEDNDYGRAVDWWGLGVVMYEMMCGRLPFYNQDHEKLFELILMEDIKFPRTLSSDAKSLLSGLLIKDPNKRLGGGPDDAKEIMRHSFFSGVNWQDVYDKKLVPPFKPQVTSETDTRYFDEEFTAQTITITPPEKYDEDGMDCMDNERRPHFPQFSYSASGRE
T3 sequence (P31751 whole entry): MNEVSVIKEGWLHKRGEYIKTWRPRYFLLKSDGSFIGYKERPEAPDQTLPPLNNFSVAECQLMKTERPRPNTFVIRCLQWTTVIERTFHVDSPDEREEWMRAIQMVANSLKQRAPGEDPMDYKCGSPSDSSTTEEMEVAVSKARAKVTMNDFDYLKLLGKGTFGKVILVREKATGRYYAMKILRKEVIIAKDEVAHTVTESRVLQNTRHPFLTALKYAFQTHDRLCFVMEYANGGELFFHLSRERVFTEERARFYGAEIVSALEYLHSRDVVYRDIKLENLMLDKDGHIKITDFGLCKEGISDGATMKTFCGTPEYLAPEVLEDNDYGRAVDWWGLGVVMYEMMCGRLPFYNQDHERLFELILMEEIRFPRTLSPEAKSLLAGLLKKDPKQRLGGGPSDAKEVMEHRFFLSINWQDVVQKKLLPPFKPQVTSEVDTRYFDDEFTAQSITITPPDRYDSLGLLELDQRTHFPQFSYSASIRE
T6 sequence (P31749 whole entry): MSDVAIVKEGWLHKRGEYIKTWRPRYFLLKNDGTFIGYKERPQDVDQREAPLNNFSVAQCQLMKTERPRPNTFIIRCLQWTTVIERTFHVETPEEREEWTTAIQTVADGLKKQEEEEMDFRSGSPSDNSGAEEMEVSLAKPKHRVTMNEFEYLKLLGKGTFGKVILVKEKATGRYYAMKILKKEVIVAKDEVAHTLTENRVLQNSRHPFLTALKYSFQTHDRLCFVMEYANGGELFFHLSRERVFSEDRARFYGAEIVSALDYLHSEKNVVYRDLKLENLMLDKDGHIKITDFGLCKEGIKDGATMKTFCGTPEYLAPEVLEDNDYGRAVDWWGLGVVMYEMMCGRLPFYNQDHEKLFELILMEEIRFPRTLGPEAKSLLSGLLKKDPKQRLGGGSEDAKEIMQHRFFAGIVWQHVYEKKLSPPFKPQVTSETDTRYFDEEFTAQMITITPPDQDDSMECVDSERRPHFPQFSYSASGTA
T1 sequence (P31751 with tags, fused parts or gaps): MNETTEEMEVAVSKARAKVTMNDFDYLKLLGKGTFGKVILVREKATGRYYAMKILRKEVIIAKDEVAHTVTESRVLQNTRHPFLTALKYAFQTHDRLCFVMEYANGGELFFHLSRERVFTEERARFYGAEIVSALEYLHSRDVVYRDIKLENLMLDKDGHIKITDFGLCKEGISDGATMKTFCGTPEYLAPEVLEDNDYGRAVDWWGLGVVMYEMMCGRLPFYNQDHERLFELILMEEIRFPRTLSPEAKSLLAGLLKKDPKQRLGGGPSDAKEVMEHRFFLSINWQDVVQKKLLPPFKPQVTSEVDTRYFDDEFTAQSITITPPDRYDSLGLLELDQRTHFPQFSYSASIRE

SMILES | IC50 (ΔPH-Akt2) [µM] | IC50 (PKC) [µM] | IC50 (PKA catalytic subunit) [µM] | IC50 (Human Akt2) [µM] | IC50 (Human Akt3) [µM] | IC50 (ΔPH-Akt1) [µM] | IC50 (Human Akt1) [µM]
CN(C)CC(C)(C)CNc1nn2c(-c3ccccc3)nnc2cc1C1CCC1 [Compound 1, N′-(7-Cyclobutyl-3-phenyl-[1,2,4]triazolo[4,3-b]pyridazin-6-yl)-2,2,N,N-tetramethyl-propane-1,3-diamine] | > 100 | – | – | – | – | – | –
COc1cc(-c2[nH]c(C3CCCN3C)nc2-c2ccncc2)ccc1Cl (stereo not shown) [Compound 19-11, 1-methyl-2-[5-(4-chloro-3-methoxyphenyl)-4-pyridin-4-yl-1H-imidazol-2-yl]-pyrrolidine] | – | 0.65 | 0.076 | > 50 | 1.4 | > 50 | 51.7
OCCOc1nn2c(-c3ccccc3)nnc2cc1-c1ccccc1 [Compound 8, 6-(2-Hydroxyethyl)oxy-3,7-diphenyl-[1,2,4]triazolo[4,3-b]pyridazine] | – | – | – | > 50 | > 50 | > 50 | –
